Experimental data from a melting point compilation (Tetko et al.).

Q: With `CN1C(=O)CCC(C(=O)O)C1c1cccs1` (stereo not drawn) as the compound, how does the melting point read?
A: 154 to 156 °C

Q: With `Cc1nc(-c2ccccc2)oc1C(=O)O` as the compound, how does the melting point read?
A: 244 to 246 °C

Q: Which melting point does the source give for `CC(C)CNS(=O)(=O)c1ccc(C(=O)O)cc1` here?
A: 238 to 240 °C

Q: With `CC(=O)N1CCN(C(=O)CCl)CC1` as the compound, how does the melting point read?
A: 89 to 91 °C

Q: Which melting point does the source give for `CC(C)(C)c1ccc(C(C)(C)N)cc1` here?
A: 75 to 77 °C

Q: With `N#CCCc1c(Cl)cccc1Cl` as the compound, how does the melting point read?
A: 40 to 42 °C

Q: With `Nc1ccc(-n2ccnc2)cc1C(F)(F)F` as the compound, how does the melting point read?
A: 109 to 111 °C

Q: For `COc1ccc(Cc2nnn[nH]2)cc1F`, which melting point is on record?
A: 191 to 193 °C

Q: Which melting point does the source give for `COc1cc(-c2ccccc2)sc1C(=O)O` here?
A: 167 to 169 °C

Q: Which melting point does the source give for `CCn1nnc2cc(C(=O)O)ccc21` here?
A: 228 to 230 °C

Q: Which melting point does the source give for `Clc1ccc(-n2ccnc2)nn1` here?
A: 185 to 187 °C

Q: For `CCNC(C(=O)O)c1ccc(F)c(F)c1` (stereo not drawn), which melting point is on record?
A: 277 to 279 °C

Q: With `CN(CC(=O)O)C(=O)c1cc(Cl)nnc1Cl` as the compound, how does the melting point read?
A: 175 to 177 °C

Q: Which melting point does the source give for `O=C(Nc1cccnc1)c1ccc(O)cc1` here?
A: 273 to 275 °C

Q: For `NC(=O)c1ccc(CNc2cccc(F)c2)cc1`, which melting point is on record?
A: 155 to 157 °C

Q: Which melting point does the source give for `COc1ccc(Br)cc1CN1C(=O)CNC1=O` here?
A: 183 to 185 °C

Q: For `COc1ccc(C(C)=O)cc1CS(=O)CC(=O)O` (stereo not drawn), which melting point is on record?
A: 93 to 95 °C

Q: With `O=C1C=CC(=O)N1CCCN1CCOCC1` as the compound, how does the melting point read?
A: 39 to 41 °C

Q: For `O=C(O)c1cn(-c2ccccc2)nn1`, which melting point is on record?
A: 138 to 140 °C

Q: With `O=C(O)c1ccc(=O)n(Cc2ccccc2)n1` as the compound, how does the melting point read?
A: 192 to 195 °C

Q: For `O=C(O)CSCc1ccc(Cl)s1`, which melting point is on record?
A: 66 to 68 °C

Q: For `O=C(O)c1cc(CO)on1`, which melting point is on record?
A: 129 to 131 °C

Q: For `COc1c(F)cc(Br)cc1S(=O)(=O)Cl`, which melting point is on record?
A: 50 to 52 °C

Q: With `CC(C)C(Br)C(=O)Nc1ccccc1Cl` (stereo not drawn) as the compound, how does the melting point read?
A: 114 to 116 °C

Q: For `Cc1cccc(C)c1C(C)O` (stereo not drawn), which melting point is on record?
A: 59 to 61 °C

Q: Which melting point does the source give for `NCc1ccc(N2CCSCC2)cc1` here?
A: 50 to 52 °C

Q: For `CCS(=O)(=O)c1ccc(CC(=O)O)cc1`, which melting point is on record?
A: 53 to 55 °C

Q: With `Cc1ccc(O)c(C(=O)NO)c1` as the compound, how does the melting point read?
A: 179 to 181 °C

Q: For `Nc1cccc(CS(=O)(=O)c2ccccc2)c1`, which melting point is on record?
A: 132 to 134 °C

Q: Which melting point does the source give for `Nc1ccc(S(=O)(=O)C(F)(F)F)cc1` here?
A: 94 to 96 °C

Q: With `O=C(O)c1ccc2cccnn12` as the compound, how does the melting point read?
A: 132 to 134 °C

Q: Which melting point does the source give for `O=C(O)c1ccc(-c2cccc(OC(F)(F)F)c2)s1` here?
A: 149 to 151 °C

Q: For `O=C(O)c1cc2c(s1)-c1ccccc1CC2`, which melting point is on record?
A: 212 to 214 °C

Q: For `O=C(O)c1cn(-c2ccccc2)nc1-c1cccc2ccccc12`, which melting point is on record?
A: 186 to 188 °C

Q: With `Cn1ccnc(Cl)c1=O` as the compound, how does the melting point read?
A: 118 to 120 °C

Q: For `Cc1n[nH]cc1C=O`, which melting point is on record?
A: 104 to 106 °C

Q: For `ClCc1cc2c(cc1Br)OCCCO2`, which melting point is on record?
A: 75 to 77 °C

Q: Which melting point does the source give for `N#Cc1ccc(N2C(=O)C=CC2=O)cc1` here?
A: 138 to 140 °C

Q: With `O=C(NO)C12CC3CC(CC(C3)C1)C2` as the compound, how does the melting point read?
A: 110 to 112 °C

Q: Which melting point does the source give for `Cc1ncc([N+](=O)[O-])cc1C(=O)O` here?
A: 210 to 214 °C

Q: Which melting point does the source give for `COc1ccc(C(=O)O)c(Br)c1` here?
A: 189 to 191 °C

Q: Which melting point does the source give for `NNC(=O)NCc1cccc(C(F)(F)F)c1` here?
A: 86 to 88 °C

Q: Which melting point does the source give for `Nc1ccccc1C(=O)NCCCN1CCOCC1` here?
A: 194 to 198 °C

Q: For `Cn1ccnc1-c1noc(N)n1`, which melting point is on record?
A: 197 to 199 °C

Q: Which melting point does the source give for `NC(=O)CCNCc1ccccc1` here?
A: 164 to 166 °C

Q: Which melting point does the source give for `O=C(O)C1CSC2(c3ccc(F)cc3)CCC(=O)N12` (stereo not drawn) here?
A: 202 to 204 °C

Q: With `CCOc1cc(C=O)ccc1OCc1cccnc1` as the compound, how does the melting point read?
A: 73 to 75 °C

Q: With `Cc1c[nH]c(=O)n1-c1ccccc1` as the compound, how does the melting point read?
A: 210 to 212 °C

Q: With `C1Cc2nnc(C3CCNCC3)n2C1` as the compound, how does the melting point read?
A: 126 to 128 °C

Q: With `Cc1ccc(Br)cc1N1CCCS1(=O)=O` as the compound, how does the melting point read?
A: 144 to 146 °C

Q: With `CC(C)CNC(=O)CC#N` as the compound, how does the melting point read?
A: 57 to 59 °C

Q: For `CCOC(=O)c1cnc2ccc(Cl)cn2c1=O`, which melting point is on record?
A: 137 to 139 °C

Q: Which melting point does the source give for `O=S(=O)(Cl)c1c[nH]cn1` here?
A: 164 to 166 °C

Q: Which melting point does the source give for `CC(C)c1ccccc1NC(N)=S` here?
A: 137 to 139 °C

Q: Which melting point does the source give for `COc1ccc(OC)c(C=NO)c1` here?
A: 94 to 96 °C

Q: For `O=C(O)CCCOc1cccc2ccccc12`, which melting point is on record?
A: 116 to 118 °C

Q: Which melting point does the source give for `Nc1nc(CCCC(=O)O)cs1` here?
A: 89 to 91 °C

Q: With `O=C(O)c1cc(Cl)cc(Cl)c1OC(F)F` as the compound, how does the melting point read?
A: 128 to 132 °C

Q: For `CCn1c(SCC(=O)O)nnc1-c1ccco1`, which melting point is on record?
A: 173 to 175 °C

Q: Which melting point does the source give for `Nc1ccc(C(=O)O)c(I)c1` here?
A: 160 to 162 °C

Q: With `CCOC(=O)c1cc(Cl)ccc1[N+](=O)[O-]` as the compound, how does the melting point read?
A: 37 to 39 °C

Q: Which melting point does the source give for `COc1cccc(NC(=O)CCl)c1` here?
A: 73 to 75 °C

Q: Which melting point does the source give for `CC(C)c1nonc1N` here?
A: 43 to 45 °C

Q: With `CCOc1cc(/C=N/O)ccc1O` as the compound, how does the melting point read?
A: 104 to 106 °C

Q: With `Cc1cccc(C2(C(=O)O)CC2)c1` as the compound, how does the melting point read?
A: 107 to 109 °C

Q: Which melting point does the source give for `COc1ccc2c(c1)CC(C(=O)O)CO2` (stereo not drawn) here?
A: 120 to 122 °C

Q: With `CS(=O)(=O)c1cc(C(=O)O)cs1` as the compound, how does the melting point read?
A: 204 to 206 °C

Q: With `NCC(O)c1cccc(OCc2ccccc2)c1` (stereo not drawn) as the compound, how does the melting point read?
A: 107 to 109 °C

Q: For `COc1ccc(Cl)cc1N1CC(C(=O)O)CC1=O` (stereo not drawn), which melting point is on record?
A: 150 to 155 °C

Q: Which melting point does the source give for `O=c1oc2ccc([N+](=O)[O-])cc2n1CCCBr` here?
A: 109 to 111 °C

Q: For `CN1CC(=O)N(CC(=O)Nc2ccccc2)C1=O`, which melting point is on record?
A: 279 to 281 °C

Q: Which melting point does the source give for `CC(N)c1cccc(N2CCCS2(=O)=O)c1` (stereo not drawn) here?
A: 60 to 62 °C

Q: With `Cc1ccc(-c2ccc(=O)[nH]n2)s1` as the compound, how does the melting point read?
A: 231 to 233 °C
